The values below are quoted from earlier work in patent US7807404B2, “Mutated truncated mt-pfkA gene for the synthesis of active shorter fragment of 6-phosphofructo-1-kinase” (Kemijski Institut, priority 2006, dated 2010).

Each structure is given as a SMILES string.

The target of data set [1] is T1, PFK1 (Oryctolagus cuniculus, UniProt P00511).
T1 construct: the enzyme, isolated from the rabbit muscle; host or cells: rabbit muscle
T1 sequence (P00511 2-780 limits assumed): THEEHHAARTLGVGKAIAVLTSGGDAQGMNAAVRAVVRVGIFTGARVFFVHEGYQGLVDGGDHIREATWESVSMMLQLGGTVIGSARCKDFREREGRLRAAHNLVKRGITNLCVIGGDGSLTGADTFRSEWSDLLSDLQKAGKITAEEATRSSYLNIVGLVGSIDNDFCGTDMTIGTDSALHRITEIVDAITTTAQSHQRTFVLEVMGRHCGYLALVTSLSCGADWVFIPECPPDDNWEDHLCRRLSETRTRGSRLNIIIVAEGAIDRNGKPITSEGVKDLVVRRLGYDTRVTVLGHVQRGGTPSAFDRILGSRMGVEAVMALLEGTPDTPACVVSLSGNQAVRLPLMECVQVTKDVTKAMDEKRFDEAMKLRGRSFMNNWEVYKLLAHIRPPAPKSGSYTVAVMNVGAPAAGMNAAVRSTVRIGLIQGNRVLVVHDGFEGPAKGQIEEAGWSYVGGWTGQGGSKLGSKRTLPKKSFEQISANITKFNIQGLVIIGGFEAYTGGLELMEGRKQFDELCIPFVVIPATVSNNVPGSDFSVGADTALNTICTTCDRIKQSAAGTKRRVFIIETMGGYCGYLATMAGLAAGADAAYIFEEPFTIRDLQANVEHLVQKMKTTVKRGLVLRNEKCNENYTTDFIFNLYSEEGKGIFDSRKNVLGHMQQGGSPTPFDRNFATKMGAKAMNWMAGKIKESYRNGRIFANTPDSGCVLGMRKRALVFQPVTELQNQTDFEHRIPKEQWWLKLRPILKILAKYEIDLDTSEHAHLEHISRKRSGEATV

For data set [2], the system named is PFK1. The settings on record: citrate 10 mM.
For data set [3], the system named is PFK1 with 8 amino acid residues cleaved from the C-terminal part.
The target of data set [4] is T2, PFK1 (Aspergillus niger, UniProt P78985).
T2 construct: The PFK1 isolated from Aspergillus niger cells; host or cells: Aspergillus niger cells
T2 sequence (P78985 whole entry): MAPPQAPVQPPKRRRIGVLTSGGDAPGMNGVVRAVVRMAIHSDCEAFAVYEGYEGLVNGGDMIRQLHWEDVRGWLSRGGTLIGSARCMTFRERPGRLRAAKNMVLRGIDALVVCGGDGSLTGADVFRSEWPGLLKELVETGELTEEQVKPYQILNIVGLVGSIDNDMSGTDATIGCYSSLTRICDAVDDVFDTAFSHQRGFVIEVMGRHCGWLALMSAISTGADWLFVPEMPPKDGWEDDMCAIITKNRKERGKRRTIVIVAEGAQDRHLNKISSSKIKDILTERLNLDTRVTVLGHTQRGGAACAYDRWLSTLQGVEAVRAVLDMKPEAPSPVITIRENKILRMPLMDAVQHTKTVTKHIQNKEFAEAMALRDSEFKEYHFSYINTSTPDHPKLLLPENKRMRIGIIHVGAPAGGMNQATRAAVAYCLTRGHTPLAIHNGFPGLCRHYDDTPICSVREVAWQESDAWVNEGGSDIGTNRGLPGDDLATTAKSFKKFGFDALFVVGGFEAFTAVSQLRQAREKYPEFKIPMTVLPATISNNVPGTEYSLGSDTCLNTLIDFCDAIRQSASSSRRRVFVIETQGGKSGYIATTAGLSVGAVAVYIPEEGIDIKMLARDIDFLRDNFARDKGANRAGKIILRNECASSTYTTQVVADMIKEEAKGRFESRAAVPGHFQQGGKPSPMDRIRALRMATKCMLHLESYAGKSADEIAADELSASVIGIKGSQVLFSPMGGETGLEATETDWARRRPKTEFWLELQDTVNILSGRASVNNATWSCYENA
The conditions noted are these: citrate 10 mM.

As for `O=C(O)CC(O)(CC(=O)O)C(=O)O` [citrate], the “citrate concentration at which the enzyme was completely inactivated” value on PFK1 [1] is given as 2.5 mM. The maximal velocity retained with PFK1 [2] is listed as 20%. In addition, in data set [3], the “citrate concentration at which the enzyme lost its activity” value is reported as 10 mM. Further, at PFK1 [4], the “effect on catalytic activity” value is reported as “almost prevented its catalytic activity”.
